# Measured values from patent US9427433B2, “Methods and compositions for enhancing fertility and/or inhibiting pregnancy failure and restoring glucose tolerance” (Queen's University at Kingston, priority 2011, dated 2016).
# Key:
# [1] = test system: patients with type I diabetes; details: 0.15 mg/kg BID; cited from earlier work
# [2] = test system: pregnant diabetic NOD mice; test: Pulse Wave Doppler of uterine arterial blood flow (resistance index); format: in vivo, mouse
# Experimental: Uterine artery resistive index (RI) was calculated for each vessel according to the equation: RI=(Peak Systolic Velocity−Peak Diastolic Velocity)/Peak Systolic Velocity to assess maternal hemodynamic characteristics of tacrolimus-treated versus the normoglycemic and the vehicle-treated diabetic NOD mice.
# Following the procedure described by Mu and Adamson (Am. J. Physiol. Heart Circ. Physiol. 291: H1421-H1428) for comparing patterns of blood flow hemodynamics in the uterine artery, transcutaneous ultrasound biomicroscopy and Doppler waveform recording were collected and analyzed from tacrolimus treated versus the diabetic and obese mice and their normoglycemic control cohort of mated pregnant mice using a microultrasound biomicroscope (Vivo770, Visual Sonic Inc., Toronto, Ontario, Canada) and a 30-40 MHz Real-Time Micro Visualization scanhead transducer operating at two frames per second (RMV704 or 708, VisualSonics Inc). […] Maternal heart and respiration rates were recorded via a physiological controller unit connected to the mechanical platform. […] Systolic and diastolic flow parameters were assessed in the selected point along the course of the uterine artery at 3-5 min intervals and the resistance index (RI=[PSV−EDV]/PSV) was calculated when EDV>0 to measure the pulsatility of arterial blood velocity waveforms.
# NOD, NZO and DIO mice [3] = test: Still births, malformations and live births of near-term pups; format: in vivo, mouse
# Source text: FIGS. 13A through 13G show results of short term administration of tacrolimus reducing the rates of stillbirths and malformations associated with the diabetic gestation and restoration of normal term pregnancy with high rate of live births in the treated diabetic and obese mice. Numbers and external morphological features of near term (Gd.16.5) pups delivered to tacrolimus-treated versus those delivered to vehicle-treated diabetic and their normoglycemic control mice are depicted in FIGS. 13A through 13C, respectively. Fetal viability rates and external features of pups delivered to diabetic and obese mice with those of the tacrolimus-treated obese and type 2 diabetic mice are depicted in FIGS. 13D and 13E, respectively. Graph bars of FIGS. 13F and 13G display figure statistics.
# The successful use of tacrolimus in reducing still birth rates and preventing fetal malformations in the diabetic and obese mice is supportive of the etiological role for IFN-γ in the pathophysiology of fetal loss in diabetes and obese subjects. FIG. 13 provides a comparison between the external morphological features and liver versus still birth rates in near-term (Gd.16.5) pups delivered to tacrolimus-treated NOD (FIG. 13A) versus vehicle-treated diabetic NOD (FIG. 13B) and their normoglycemic control mice (FIG. 13C). […]
# NOD, NZO and DIO mice [4] = test: Ovarian function, serum estrogen/progesterone, follicle counts and uterine weight ratio; format: in vivo, mouse
# Experimental: Using Papanicolaou's staining kit (Sigma Aldrich, Oakville, Ontario, Canada), staining of vaginal smears obtained between 09:00-10:00 AM was performed to identify the phases of the estrous cycle and to establish the individual animal cycling pattern as previously described (Koss L. G (Ed): The Papanicolaou Stain. In Diagnostic Cytology and its Histopathological Bases. 4th Edit. Koss, Leopold; Melamed and Myron R. Eds. J.B. Lippincott Williams & Wilkins (LWW), Philadelphia. 1992; Vol. 2: 1211-1221). Blood and virgin uteri were collected from nulliparous diabetic NOD females, at the proestrus, estrus and the metestrus phase, respectively, after four weeks in diabetes. Blood and uteri were also collected from age-matched, tacrolimus-treated nulliparous NOD mice immediately after completing the treatment schedule.
# Fifty four NOD mice at the prediabetic and early diabetic stages were carefully selected to match the criteria of being 2 standard deviation heavier in body weight than their age-matched normoglycemic control mice and having blood glucose value of >14.9 mM/1 during the glucose tolerance test. The selected mice were 9 weeks old and were treated with 0.1 mg/kg q2d of tacrolimus (Prograf (5 mg/ml), Astellas) subcutaneously administered in 0.2 ml saline for three weeks after which animals were mated to males of the same strain (See FIG. 1). Vehicle (0.2 ml saline, s.q.) treated hyperglycemic NOD female mice were allowed two weeks in diabetes before they were mated to males of the same strain. Facial (mandibular) venous blood samples were collected from treated animals at 24 and 48 hours between injections and at pregnancy days 0.5, 2.5, 4.5, 6.5, 8.5, 10.5, 12.5, 14.5, 16.5 and 18.5 respectively following a standard procedure for facial bleed in mice (Golde et al Lab Anim (NY) 2005 34:39-43).
# Twenty NZO and DIO/B6 female mice were maintained on a high fat diet consisted of 60% kcal fat, 20% kcal protein and 20% kcal carbohydrate, with a total energy mass of 5.24 kcal/gm (D12492, Research Diets Inc.; Cedarlane Laboratories, Burlington, Ontario, Canada) starting at 7 weeks of age and maintained on the diet for a total of 12 weeks of study period during which their weekly body weight changes and non-fasting blood glucose values were recorded. Mice which became obese as defined by having a Body mass index (BMI) value of 30, and tested positive for glucose intolerance were selected for an initial treatment episode with tacrolimus after being fed for four weeks with the high fat diet (See FIG. 2). Tacrolimus (Prograf (5 mg/ml), Astellas) was administered subcutaneously in a dose of 0.1 mg/kg q2d in 0.2 ml saline for three weeks to the obese and glucose intolerant NZO and DIO mice starting at the age of 10 weeks after which animals were mated to males of the same strain and pregnancy was dated from the morning of the positive detection of vaginal (copulation) plug. Facial (mandibular) venous blood samples were collected from treated animals at 24 and 48 hours between injections and at pregnancy days 0.5, 2.5, 4.5, 6.5, 8.5, 10.5, 12.5, 14.5, 16.5 and 18.5, respectively, following a standard procedure for facial bleed in mice (Golde et al. Lab Anim (NY) 2005 34:39-43). A lean cohort of control B6 and BALBc mice was fed with a regular 10 kcal % control chow diet containing the same protein content as the high fat diet with a total energy mass of 3.1 kcal/g (D12450Bi, Cedarlane, Ontario). […]
# [5] = short-term administration, FIG. 3B
structure (smiles),measurement,setting,value
C=CC[C@@H]1/C=C(\C)C[C@H](C)C[C@H](OC)[C@H]2O[C@@](O)(C(=O)C(=O)N3CCCC[C@H]3C(=O)O[C@H](/C(C)=C/[C@@H]3CC[C@@H](O)[C@H](OC)C3)[C@H](C)[C@@H](O)CC1=O)[C@H](C)C[C@@H]2OC [tacrolimus],outcome of clinical study in type I diabetes,[1],inconclusive
same,treated pregnant diabetic mice with sustained decidual arteriolar flow velocity and normalized vascular resistance to uterine blood flow,"[2]; Doppler waveform, p<0.05 vs vehicle-treated diabetic mice",88%
same,uterine arterial hemodynamics,[2]; throughout pregnancy,improved uterine arterial hemodynamics
same,rates of still births and malformations,"NOD, NZO and DIO mice [3]; near-term (Gd.16.5) pups",reduced the rates of still births and malformations
same,term pregnancy and live births,"NOD, NZO and DIO mice [3]; treated diabetic and obese mice",restored normal term pregnancy with high rate of live births
same,ovulation,"NOD, NZO and DIO mice [4]; 0.1 mg/kg q2d s.c. for three weeks",enhanced ovulation
same,ovarian secretion of estrogen and progesterone,"NOD, NZO and DIO mice [4]; 0.1 mg/kg q2d s.c. for three weeks, peri- and post-implantation",normalized ovarian secretion of estrogen and progesterone
same,uterine growth (uterine weight ratio),"NOD, NZO and DIO mice [4]; early proliferative phase (proestrus) of estrous cycle, FIG. 3C",significant improvement in uterine growth
same,numbers of atretic follicles,"NOD, NZO and DIO mice [4]; [5]",reduced numbers of atretic follicles
same,"numbers of secondary follicles, antral follicles and corpora lutea","NOD, NZO and DIO mice [4]; [5]","increased numbers of secondary follicles (FIG. 3B: S), antral follicles (FIG. 3B: A) and corpora lutea (FIG. 3B: CL)"
